Source: patent US9668480B2, “Method for treating plants against fungi resistant to fungicides using carboxamide or thiocarboxamide derivatives” (priority 2012, dated 2017)
Where “and” joins values, the source holds several entries; their conditions need not be identical. Identical values can stand only once.

Experiments:
[1] = system: Botrytis cinerea boscalid-resistant strains with SDHB_P225H, F substitutions; test: Sensitivity assay in microtiter plate, resistance factor of boscalid-resistant field strains versus Bo47 WT; format: cell-based
Protocol: Four to five strains with SDHB_P225H, F substitutions were retained for subsequent sensitivity assays in microtiter plate. IC50 of test compounds were determined and resistance factors (RF) calculated as the ratio of IC50 mutant/IC50 WT (Bo47). […] Strains giving a RF below 10 were considered sensitive, moderately resistant when RF was comprised between 10 and 50, resistant above 50.

[2] = biological target: succinate-ubiquinone redutase (SDH) of mitochondria from Bo47 WT strain (Botrytis cinerea, UniProt A0A384J5E4+D2IH01+D2IH03); test: SDH activity of extracted mitochondria by DCPIP reduction at 595 nm, wild type; format: biochemical; details: 20 min preincubation, -log 10 of concentration inhibiting DCPIP reduction by 50%
Protocol: (§1) Compounds activity was investigated at the level of the mitochondrial target and compared to other SDH inhibitors.
(§2) Mitochondria were extracted according to Cramer et al. (1983) Analytical biochemistry, 128, 384-392 and the mycelium prepared according to Fritz et al., (1993). Agronomie 13, 225-230 except that spore's incubation was pursued for 48 hours. SDH activity was measured by following DCPIP (2,6-dichlorphenol-indophenol) reduction at 595 nm overtime. To test SDH inhibitors, mitochondria were incubated with test compounds for 20 min prior the initiation of the reaction.

[3] = biological target: succinate-ubiquinone redutase (SDH) of mitochondria from the 3884 strain (SDHB P225H substitution) (Botrytis cinerea, UniProt A0A384J5E4+D2IH01+D2IH03, P225H); test: SDH activity of extracted mitochondria by DCPIP reduction at 595 nm, P225H mutant; format: biochemical; set-up: key to Classification: Classification A pI50 increase or stable compared to WT; Classification B pI50 decrease inferior or equal to 0.6 compared to WT; Classification C pI50 decrease superior to 0.6 compared to WT; details: for Classification: pI50 on P225H 3884 mitochondria compared to WT
Protocol: as §1, §2

Sequence of succinate-ubiquinone redutase (SDH) of mitochondria from Bo47 WT strain (A0A384K456 entry or part of it): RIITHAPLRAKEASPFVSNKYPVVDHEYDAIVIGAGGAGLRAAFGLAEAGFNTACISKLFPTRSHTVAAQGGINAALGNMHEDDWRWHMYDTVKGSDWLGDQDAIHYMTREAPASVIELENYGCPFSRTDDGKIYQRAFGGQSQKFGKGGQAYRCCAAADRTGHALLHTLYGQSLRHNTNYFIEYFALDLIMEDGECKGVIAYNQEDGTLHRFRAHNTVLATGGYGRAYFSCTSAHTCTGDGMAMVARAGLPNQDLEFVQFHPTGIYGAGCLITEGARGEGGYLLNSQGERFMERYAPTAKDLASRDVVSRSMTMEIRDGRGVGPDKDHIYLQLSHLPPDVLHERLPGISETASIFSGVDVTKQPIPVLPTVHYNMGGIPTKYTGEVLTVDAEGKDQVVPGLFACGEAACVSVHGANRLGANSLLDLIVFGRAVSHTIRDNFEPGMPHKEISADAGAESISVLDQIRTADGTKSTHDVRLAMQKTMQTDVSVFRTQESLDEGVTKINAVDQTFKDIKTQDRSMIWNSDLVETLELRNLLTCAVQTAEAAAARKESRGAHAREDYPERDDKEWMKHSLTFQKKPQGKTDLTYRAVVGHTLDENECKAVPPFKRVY
Sequence of succinate-ubiquinone redutase (SDH) of mitochondria from Bo47 WT strain (D2IH03 entry or part of it): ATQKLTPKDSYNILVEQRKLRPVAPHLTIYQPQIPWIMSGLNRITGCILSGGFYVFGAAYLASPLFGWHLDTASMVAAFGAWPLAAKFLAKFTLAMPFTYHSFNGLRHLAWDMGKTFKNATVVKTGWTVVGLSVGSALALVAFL
Sequence of succinate-ubiquinone redutase (SDH) of mitochondria from Bo47 WT strain (A0A384J5E4 entry or part of it): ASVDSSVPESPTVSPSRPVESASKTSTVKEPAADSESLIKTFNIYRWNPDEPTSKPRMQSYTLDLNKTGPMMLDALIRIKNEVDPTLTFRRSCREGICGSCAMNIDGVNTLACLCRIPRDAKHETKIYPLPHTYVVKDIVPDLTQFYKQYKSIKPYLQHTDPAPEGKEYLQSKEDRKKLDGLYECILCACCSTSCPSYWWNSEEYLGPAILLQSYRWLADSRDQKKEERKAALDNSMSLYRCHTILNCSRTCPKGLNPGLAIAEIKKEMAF
Sequence of succinate-ubiquinone redutase (SDH) of mitochondria from Bo47 WT strain (D2IH01 entry or part of it): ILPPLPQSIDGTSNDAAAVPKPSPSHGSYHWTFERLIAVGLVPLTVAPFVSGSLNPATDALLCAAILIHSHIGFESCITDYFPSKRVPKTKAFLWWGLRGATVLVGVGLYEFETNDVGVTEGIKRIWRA
Sequence of succinate-ubiquinone redutase (SDH) of mitochondria from the 3884 strain (SDHB P225H substitution) (A0A384J5E4 30-300, stated change not applied): as the sequence (A0A384J5E4 entry or part of it) above
Sequence of succinate-ubiquinone redutase (SDH) of mitochondria from the 3884 strain (SDHB P225H substitution) (D2IH03 46-189, stated change not applied): as the sequence (D2IH03 entry or part of it) above
Sequence of succinate-ubiquinone redutase (SDH) of mitochondria from the 3884 strain (SDHB P225H substitution) (D2IH01 64-192, stated change not applied): as the sequence (D2IH01 entry or part of it) above
Sequence of succinate-ubiquinone redutase (SDH) of mitochondria from the 3884 strain (SDHB P225H substitution) (A0A384K456 34-647 partner): as the sequence (A0A384K456 entry or part of it) above

Q: How did the “resistance factor (RF), ratio of IC50 mutant/IC50 WT (Bo47)” value (shortened to “resistance factor (RF), ratio”) ([1]; mutation P225F, BOTRCI strain 08BC1554) turn out when CC(C)C1C2CCC1c1c(NC(=O)c3cn(C)nc3C(F)F)cccc12 (stereo not drawn) [Isopyrazam] was run?
A: Its value is 48.4.

Q: And the “resistance factor (RF), ratio” value ([1]; mutation P225F, BOTRCI strain 08BC1557)?
A: The value was 42.9.

Q: What about the “resistance factor (RF), ratio” value ([1]; mutation P225F, BOTRCI strain 08BC1558) of the same compound?
A: Its value is 37.9.

Q: And the “resistance factor (RF), ratio” value ([1]; mutation P225F, BOTRCI strain 09BC2615)?
A: The value was 32.8.

Q: And the “resistance factor (RF), ratio” value ([1]; mutation P225H, BOTRCI strain 09BC2640)?
A: The value was 19.7.

Q: What about the “resistance factor (RF), ratio” value ([1]; mutation P225H, BOTRCI strain 09BC2648) of the same compound?
A: Its value is 25.1.

Q: And the “resistance factor (RF), ratio” value ([1]; mutation P225H, BOTRCI strain 09BC2649)?
A: Its value is 30.7.

Q: And the “sensitivity class of strains by RF” value ([1]; strains harboring P225H and F substitutions)?
A: Its value is “moderately resistant (moderately resistant when RF was comprised between 10 and 50)”.

Q: What about the “PI50 Bo47 (Wild type)” value [2] of the same compound?
A: The value was 8 and 8.2.

Q: And the “PI50 P225H3884” value ([3]; mitochondria of 3884 strain, 20 min preincubation, -log 10 of concentration inhibiting DCPIP reduction by 50%)?
A: Its value is 7.2.

Q: What about the Classification [3] of the same compound?
A: Its Classification is “C (Classification C pI50 decrease superior to 0.6 compared to WT)”.

Q: Which “activity on strains with P225 substitutions compared with wild type strain” value ([1]; strains with P225 substitutions vs wild type) does the source give for Cn1nc(C(F)F)c(C(=O)N(Cc2c(C(F)(F)F)ccc(Cl)c2F)C2CC2)c1F [Compound A18, N-[3-chloro-2-fluoro-6-(trifluoromethyl)benzyl]-N-cyclopropyl-3-(difluoromethyl)-5-fluoro-1-methyl-1H-pyrazole-4-carboxamide] here?
A: Its value is “always more active on strains with P225 substitutions than on wild type strain”.

Q: What about the IC50 ([2]; PI50 Bo47 (Wild type)) of the same compound?
A: Its IC50 is 15.8 nM.

Q: And the IC50 ([3]; mitochondria of 3884 strain, 20 min preincubation, -log 10 of concentration inhibiting DCPIP reduction by 50%, read-out: PI50 P225H3884 (converted))?
A: The IC50 was 6.31 nM.

Q: And the Classification [3]?
A: Its Classification is “A”.
